Assay type in all cases: physicochemical
Series [1] is described as follows: Aqueous solubility. As to conditions: water, thermodynamic from solid, solvent addition method.
Series [2] is described as follows: Dynamic vapor sorption (DVS). How it is done:
Approximately 10-20 mg of sample was placed into a mesh vapor sorption balance pan and loaded into a DVS-1 dynamic vapor sorption balance by Surface Measurement Systems. […] After completion of the sorption cycle, the sample was dried using the same procedure to 0% RH and then a second sorption cycle back to 40% RH. Two cycles were performed. The weight change during the sorption/desorption cycles were plotted, allowing for the hygroscopic nature of the sample to be determined. XRPD analysis may be then carried out on any solid retained.

The nature of series [3]: Acetone solubility. The following applies: organic solvent or mixture, thermodynamic from solid, partial dissolution, solvent addition method.
A short description of series [4]: Gravimetric vapor sorption (GVS). How it is done: Approximately 10-20 mg of sample was placed into a mesh vapor sorption balance pan and loaded into an IGASorp Moisture Sorption Analyzer balance by Hiden Analytical. The sample was subjected to a ramping profile from 40-90% relative humidity (RH) at 10% increments, maintaining the sample at each step until a stable weight had been achieved (98% step completion). After completion of the sorption cycle, the sample was dried using the same procedure to 0% RH, and finally taken back to the starting point of 40% RH. Two cycles were performed. The weight change during the sorption/desorption cycles were plotted, allowing for the hygroscopic nature of the sample to be determined.

The nature of series [5]: Acetone solubility. As to conditions: form of residual solid; amorphous input: Form 2 residual solid with additional peaks. How it is done:
Aqueous and acetone solubility was carried out using 3-10 mg of material, depending on availability, and slurrying in 150-200 μL of acetone or 300 μL of deionized water. The samples were agitated at ambient temperature then filtered by centrifugation (0.22 μm nylon filter) after ca. 24 hours and the solids analyzed by XRPD as damp solids. The filtrates were analyzed by HPLC for concentration determination. The water solubility was too low for detection using the current analytical method.

Series [6] is described as follows: Form conversion under ambient or vacuum drying conditions. As to conditions: vacuum drying.

A word on the Solubility: it is how much of the substance goes into solution per volume. `O=C(c1ccc(Oc2ccccc2)cc1Cl)c1c[nH]c2ncnc(N[C@@H]3CC[C@@H](CO)OC3)c12` [amorphous Compound A, (2-chloro-4-phenoxyphenyl)(4-(((3R,6S)-6-(hydroxymethyl)tetrahydro-2H-pyran-3-yl)amino)-7H-pyrrolo[2,3-d]pyrimidin-5-yl)methanone]: the Solubility in series [1] was below 10 mg/mL; in series [3] it was at least 16 mg/mL. The “hygroscopic nature by DVS” value in series [2] is given as “hygroscopic”. Besides, the “Post-DVS XRPD analysis (form)” value in series [2] (after exposure to elevated humidity) was “remain amorphous”. Moreover, the “moisture uptake by DVS” value in series [2] (at 90% RH) is recorded as 3.9%. The “XRPD post GVS” value in series [4] (cell wraps: Remained | unchanged) was “Remained”. Besides, the “GVS (hygroscopicity)” value in series [4] (summary Table 11) is on record as 3.9% uptake. In addition, the “Acetone solubility: residual solid” value in series [5] was “(Form 2 residual”.
`O=C(c1ccc(Oc2ccccc2)cc1Cl)c1c[nH]c2ncnc(N[C@@H]3CC[C@@H](CO)OC3)c12.O=S(=O)(O)c1cccc2c(S(=O)(=O)O)cccc12` [1,5-naphthalene disulfonic acid Form 2]: the “form conversion under vacuum drying conditions” value in series [6] is reported as “converts 1,5-naphthalene disulfonic acid Form 4”.

The values above are taken from US10975087B2, “Solid forms of tetrahydropyranyl amino-pyrrolopyrimidinone compounds” (ArQule, Inc., priority 2018, dated 2021).
